Reference: ChEMBL document CHEMBL1128364 (J Med Chem, 1995)
Numbered stars: 1 amine (or outer) side, 2 acyl side, 3 side chain; on linkers, the order of the positions; unused ones are H or OH. Bridge positions count the residues as written; N and C are the ends. Square brackets hold non-standard residues; d marks the D form. Peptide text beside a SMILES is read from it. X2 = O=C(CC1(S[*:2])CCCCC1)[*:1]

Experiments:
[1] = test system: Rattus norvegicus; assay: (§1) In vivo activity for the anti-oxytocic activity.; format: functional
[2] = test system: Rattus norvegicus; assay: as §1; format: functional, organism-based; settings: read-out: pA2 (converted)
[3] = target: Vasopressin V1a receptor (Rattus norvegicus, UniProt P30560); assay: (§2) Anti-vasopressor activity at V1a receptor; settings: read-out: pA2 (converted)
[4] = target: Vasopressin V1a receptor (Rattus norvegicus) (UniProt P30560); assay: as §2
[5] = target: Vasopressin V2 receptor (Rattus norvegicus) (UniProt Q00788); assay: (§3) Antidiuretic activity at V2 receptor; format: tissue-based; settings: Urine
[6] = target: Vasopressin V2 receptor (Rattus norvegicus, UniProt Q00788); assay: as §3; format: tissue-based, Urine; settings: read-out: pA2 (converted)
[7] = test system: Rattus norvegicus; assay: In vivo anti-oxytocic activity was determined.; format: functional
[8] = target: T1, Oxytocin receptor (Rattus norvegicus, UniProt P70536); assay: In vitro antioxycic activity with out Mg2+.; settings: read-out: pA2 (converted)
T1 sequence (P70536 whole entry): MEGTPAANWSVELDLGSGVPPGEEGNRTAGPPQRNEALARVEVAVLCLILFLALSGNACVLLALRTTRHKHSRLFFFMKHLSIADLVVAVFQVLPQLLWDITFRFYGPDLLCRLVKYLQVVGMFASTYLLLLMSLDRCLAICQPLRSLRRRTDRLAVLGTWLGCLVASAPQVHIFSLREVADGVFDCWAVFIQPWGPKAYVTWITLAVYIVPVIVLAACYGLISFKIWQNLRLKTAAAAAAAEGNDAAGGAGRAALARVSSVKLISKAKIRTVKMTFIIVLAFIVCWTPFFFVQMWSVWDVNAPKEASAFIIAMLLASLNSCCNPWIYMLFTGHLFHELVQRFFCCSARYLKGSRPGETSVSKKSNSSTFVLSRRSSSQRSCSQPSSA

[9] = target: T1, Oxytocin receptor; assay: In vitro anti-oxytocic activity with 0.5 mM Mg2+.; settings: read-out: pA2 (converted)

Vasopressin V1a receptor (Rattus norvegicus), sequence (P30560 whole entry, looked up): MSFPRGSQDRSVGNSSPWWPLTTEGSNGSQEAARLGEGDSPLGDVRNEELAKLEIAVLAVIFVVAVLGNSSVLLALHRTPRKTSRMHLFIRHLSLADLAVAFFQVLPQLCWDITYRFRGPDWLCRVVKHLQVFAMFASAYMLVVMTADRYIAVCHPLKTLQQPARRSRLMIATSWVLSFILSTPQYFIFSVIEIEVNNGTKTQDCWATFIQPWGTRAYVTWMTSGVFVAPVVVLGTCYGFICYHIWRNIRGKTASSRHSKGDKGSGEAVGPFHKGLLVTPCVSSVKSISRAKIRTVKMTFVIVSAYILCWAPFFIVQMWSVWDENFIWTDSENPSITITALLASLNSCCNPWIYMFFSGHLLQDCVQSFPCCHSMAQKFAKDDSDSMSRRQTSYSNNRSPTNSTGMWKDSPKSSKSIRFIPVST
Vasopressin V1a receptor, sequence (P30560 whole entry): as the sequence (P30560 whole entry, looked up) above
Vasopressin V2 receptor (Rattus norvegicus), sequence (Q00788 whole entry): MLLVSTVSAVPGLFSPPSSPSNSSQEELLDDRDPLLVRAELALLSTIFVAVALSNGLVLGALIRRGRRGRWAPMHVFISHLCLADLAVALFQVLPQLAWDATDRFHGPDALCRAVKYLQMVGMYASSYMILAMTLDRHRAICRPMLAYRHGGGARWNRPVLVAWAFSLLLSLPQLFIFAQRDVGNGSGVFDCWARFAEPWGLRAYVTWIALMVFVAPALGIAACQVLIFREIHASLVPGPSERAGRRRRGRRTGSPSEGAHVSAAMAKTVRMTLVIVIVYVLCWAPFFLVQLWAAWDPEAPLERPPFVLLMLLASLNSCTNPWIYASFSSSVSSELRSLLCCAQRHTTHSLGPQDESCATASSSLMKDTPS
Vasopressin V2 receptor, sequence (Q00788 whole entry): as above

## CCOc1ccc(C[C@@H]2NC(=O)CC3(CCCCC3)SSC[C@@H](C(=O)N3CCC[C@H]3C(=O)N[C@@H](CCCN=C(N)N)C(=O)NCC(N)=O)NC(=O)[C@H](CC(N)=O)NC(=O)[C@H](C(C)C)NC(=O)[C@H](Cc3ccccc3)NC2=O)cc1
[1]
  ED: 13 nM/kg
[2]
  Kb: 182 nM
[3]
  Kb: 6.92 nM
[4]
  ED: 0.14 nM/kg
[5]
  ED: 1.9 nM/kg

## CCOc1ccc(C[C@H]2NC(=O)CC3(CCCCC3)SSC[C@H](C(=O)N3CCC[C@H]3C(=O)N[C@@H](CCCN=C(N)N)C(=O)NCC(N)=O)NC(=O)[C@H](CC(N)=O)NC(=O)[C@H](C(C)C)NC(=O)[C@H](Cc3ccccc3)NC2=O)cc1
[1]
  ED: 4.8 nM/kg

## CC(C)[C@@H]1NC(=O)[C@H](Cc2ccccc2)NC(=O)[C@@H](Cc2ccccc2)NC(=O)CC2(CCCCC2)SSC[C@H](C(=O)N2CCC[C@H]2C(=O)N[C@@H](CCCN=C(N)N)C(=O)NCC(N)=O)NC(=O)[C@H](CC(N)=O)NC1=O
[3]
  Kb: 27.5 nM
[4]
  ED: 1.9 nM/kg
[5]
  ED: 3.9 nM/kg
[6]
  Kb: 56.2 nM

## CC(C)[C@@H]1NC(=O)[C@H](Cc2ccccc2)NC(=O)[C@@H](Cc2ccccc2)NC(=O)CC2(CCCCC2)SSC[C@@H](C(=O)N2CCC[C@H]2C(=O)N[C@@H](CCCN=C(N)N)C(=O)NCC(N)=O)NC(=O)[C@H](CC(N)=O)NC1=O
[3]
  Kb: 8.71 nM
[6]
  Kb: 8.51 nM

## CC[C@H](C)[C@@H]1NC(=O)[C@H](Cc2ccc(OC)cc2)NC(=O)CC2(CCCCC2)SSC[C@H](C(=O)N2CCC[C@H]2C(=O)N[C@@H](CCCN)C(=O)NCC(N)=O)NC(=O)[C@H](CC(N)=O)NC(=O)[C@H](CCC(N)=O)NC1=O
[7]
  ED: 3.11 nM/kg

## CC[C@H](C)[C@@H]1NC(=O)[C@H](Cc2ccc(OC)cc2)NC(=O)CC2(CCCCC2)SSC[C@H](C(=O)N2CCC[C@H]2C(=O)N[C@@H](CCCN)C(=O)O)NC(=O)[C@H](CC(N)=O)NC(=O)[C@H]([C@@H](C)O)NC1=O
[7]
  ED: 9.24 nM/kg

## CCOc1ccc(C[C@H]2NC(=O)CC3(CCCCC3)SSC[C@@H](C(=O)N3CCC[C@H]3C(=O)N[C@@H](CCCN=C(N)N)C(=O)NCC(N)=O)NC(=O)[C@H](CC(N)=O)NC(=O)[C@H](C(C)C)NC(=O)[C@H](Cc3ccccc3)NC2=O)cc1
[3]
  Kb: 6.03 nM
[4]
  ED: 0.45 nM/kg
[5]
  ED: 1.1 nM/kg

## CC[C@H](C)[C@@H]1NC(=O)[C@H](Cc2cc3ccccc3[nH]2)NC(=O)CC2(CCCCC2)SSC[C@H](C(=O)N2CCC[C@H]2C(=O)N[C@@H](CCCN=C(N)N)C(=O)NCC(N)=O)NC(=O)[C@H](CC(N)=O)NC(=O)[C@H](CCC(N)=O)NC1=O
[4]
  ED: 2 nM/kg

## CCOc1ccc(C[C@@H]2NC(=O)CC3(CCCCC3)SSC[C@H](C(=O)N3CCC[C@H]3C(=O)N[C@@H](CCCN=C(N)N)C(=O)NCC(N)=O)NC(=O)[C@H](CC(N)=O)NC(=O)[C@H](C(C)C)NC(=O)[C@H](Cc3ccccc3)NC2=O)cc1
[3]
  Kb: 64.6 nM

## CC[C@H](C)[C@@H]1NC(=O)[C@H](Cc2ccc(OC)cc2)NC(=O)CC2(CCCCC2)SSC[C@@H](C(=O)N2CCC[C@H]2C(=O)N[C@@H](CCCN)C(=O)N[C@@H](Cc2ccc(O)cc2)C(N)=O)NC(=O)[C@H](CC(N)=O)NC(=O)[C@H]([C@@H](C)O)NC1=O
[8]
  Kb: 23.4 nM
[9]
  Kb: 5.25 nM
[3]
  Kb: 95.5 nM
[4]
  ED: 6.6 nM/kg
[5]
  Antidiuretic activity: 0.015 U mg-1

## COc1ccc(C[C@@H]2NC(=O)CC3(CCCCC3)SSC[C@H](C(=O)N3CCC[C@H]3C(=O)N[C@@H](CCCN=C(N)N)C(=O)NCC(N)=O)NC(=O)[C@H](CC(N)=O)NC(=O)[C@H](CCC(N)=O)NC(=O)[C@H](Cc3ccccc3)NC2=O)cc1
[1]
  ED: 17 nM/kg

## CC[C@H](C)[C@@H]1NC(=O)[C@@H](Cc2c[nH]c3ccccc23)NC(=O)CC2(CCCCC2)SSC[C@@H](C(=O)N2CCC[C@H]2C(=O)N[C@@H](CCCN=C(N)N)C(=O)NCC(N)=O)NC(=O)[C@H](CC(N)=O)NC(=O)[C@H](CCC(N)=O)NC1=O ([dW]IQNCPRG-NH2; linker N-5 via X2)
[3]
  Kb: 27.5 nM
[6]
  Kb: > 1260 nM

## CC[C@H](C)[C@@H]1NC(=O)[C@@H](Cc2c[nH]c3ccccc23)NC(=O)CC2(CCCCC2)SSC[C@H](C(=O)N2CCC[C@H]2C(=O)N[C@@H](CCCN=C(N)N)C(=O)NCC(N)=O)NC(=O)[C@H](CC(N)=O)NC(=O)[C@H](CCC(N)=O)NC1=O ([dW]IQN[dC]PRG-NH2; linker N-5 via X2)
[3]
  Kb: 29.5 nM
[6]
  Kb: > 2510 nM

## CC(C)[C@@H]1NC(=O)[C@@H](Cc2ccccc2)NC(=O)[C@@H](Cc2ccccc2)NC(=O)CC2(CCCCC2)SSC[C@@H](C(=O)N2CCC[C@H]2C(=O)N[C@@H](CCCN=C(N)N)C(=O)NCC(N)=O)NC(=O)[C@@H](CC(N)=O)NC1=O
[4]
  ED: 0.58 nM/kg
[5]
  ED: 0.67 nM/kg
